Data on 26 compounds can be found in ChEMBL document CHEMBL4814068, “Synthesis and structure-activity relationships of new chiral spiro-β-lactams highly active against HIV-1 and Plasmodium” (Eur J Med Chem, 2021).

Structures are written as SMILES.

Data set [1] is described as follows: Cytotoxicity against human TZM-bl cells assessed as reduction in cell viability by AlamarBlue assay. In kind it is cell-based. On the technique in general: Resazurin is reduced to fluorescent resorufin, in cell work by metabolically active cells.
Data set [2] has as its system Human immunodeficiency virus 1. Kind of data set: Antiviral activity against HIV1 SG3.1 infected in human TZM-bl cells assessed as inhibition of viral replication at 10 ug/ml measured after 48 hrs by single round viral infectivity assay based Steady-Glo luciferase assay. It is filed as functional. Particulars: Human immunodeficiency virus 1, SG3.1, TZM-bl.
The subject of data set [3] is Human immunodeficiency virus 1. Kind of data set: Antiviral activity against HIV1 SG3.1 infected in human TZM-bl cells measured after 48 hrs by single round viral infectivity assay based Steady-Glo luciferase assay. It is filed as functional, organism-based. Particulars: Human immunodeficiency virus 1, SG3.1, TZM-bl; for IC50: 48 h; for IC90: time 48 hrs.
Another data set concerns Plasmodium berghei. Kind of data set: Antiplasmodial activity against hepatic stage of Plasmodium berghei infected in human Huh7 cells assessed as reduction in parasite growth treated 1 hr prior to infection and measured after 48 hrs by firefly luciferase based bioluminescence assay. In kind it is functional, organism-based. The note with it: Huh-7.
In a further data set the test system is Plasmodium falciparum. Kind of data set: Antiplasmodial activity against blood stage of Plasmodium falciparum NF54 assessed as inhibition of parasite growth measured after […] by SYBR green 1 dye based flow cytometry. In kind it is functional, organism-based. (A flow cytometer gives signals particle by particle.)
The test system of data set [4] is Human immunodeficiency virus 2. Kind of data set: Antiviral activity against HIV2 03PTHCC19 infected in human TZM-bl cells measured after 48 hrs by single round viral infectivity assay based Steady-Glo luciferase assay. In kind it is functional, organism-based. Particulars: Human immunodeficiency virus 2, 03PTHCC19, TZM-bl.
For a further data set, the system named is Huh-7. Kind of data set: Cytotoxicity against human Huh-7 cells assessed as reduction in cell viability by AlamarBlue assay. In kind it is cell-based.

`CC1(C)S[C@H]2N(C(=O)C23NN=C(C(=O)OCc2ccccc2)C3C(=O)c2ccccc2)[C@H]1C(=O)OC(c1ccccc1)c1ccccc1` (some centres undefined): in data set [1], the CC50 was determined as 17.2 µM.

On to `CC1(C)S[C@H]2N(C(=O)C23C(C(=O)OCc2ccccc2)=CCC3C(=O)c2ccccc2)[C@H]1C(=O)O` (some centres undefined), for which the CC50 in data set [1] is 56.6 µM. In addition, the inhibition at 10 µg/mL in data set [2] was found to be 0%.

As to `COC(=O)C1=CC2(N=N1)C(=O)N1[C@@H](C(=O)OC)C(C)(C)S[C@@H]12` (some centres undefined), the CC50 in data set [1] was 89.8 µM. The inhibition at 10 µg/mL in data set [2] stood at 0%.

As for `CC1(C)S[C@H]2N(C(=O)C23CC=C(C(=O)OCc2ccccc2)C3C(=O)c2ccccc2)[C@H]1C(=O)OC(c1ccccc1)c1ccccc1` (some centres undefined), the IC50 was determined as 0.014 µM in data set [3], 0.55 µM with Plasmodium berghei, 0.43 µM in the data set with Plasmodium falciparum and 0.008 µM in data set [4].

As for `CCOC(=O)C1=CC2(N=N1)C(=O)N1[C@@H](C(=O)OC(c3ccccc3)c3ccccc3)C(C)(C)S[C@@H]12` (some centres undefined), the CC50 in data set [1] came to 46.9 µM. Further, the inhibition at 10 µg/mL in data set [2] turned out to be 0%.

Consider `CCOC(=O)C1=CC2(N=N1)C(=O)N1[C@@H](C(=O)O)C(C)(C)S[C@@H]12` (some centres undefined), for which, in data set [1], the 50% cytotoxic concentration (CC50) came to 83.8 µM. For the same compound, the inhibition at 10 µg/mL in data set [2] was 0%.

Take `CCOC(=O)C1=CCC(C(=O)c2ccccc2)C12C(=O)N1[C@@H](C(=O)OC(c3ccccc3)c3ccccc3)C(C)(C)S[C@@H]12` (some centres undefined): the CC50 in data set [1] was 57.1 µM. For the same compound, in data set [2], the inhibition at 10 µg/mL is 0%.

As to `COC(=O)C1=CCC2(C(=O)N3[C@@H](C(=O)OC(c4ccccc4)c4ccccc4)C(C)(C)S[C@@H]32)C1C(=O)c1ccccc1` (some centres undefined), in data set [1], the CC50 turned out to be 53.2 µM. Besides, the inhibition at 10 µg/mL in data set [2] was 99%. The IC50 in data set [3] stood at 0.058 µM; in the data set with Plasmodium berghei it was 2.29 µM; in the data set with Plasmodium falciparum it was 1.26 µM. This compound returned an IC90 in data set [3] of 0.233 µM. Also, in the data set on Huh-7, the Activity entry is reported as “Non-Toxic”.

With `CC(C)(C)OC(=O)C1=CC2(N=N1)C(=O)N1[C@@H](C(=O)O)C(C)(C)S[C@@H]12` (some centres undefined), the CC50 in data set [1] was found to be 79 µM. The inhibition at 10 µg/mL in data set [2] is 0%.

On to `COC(=O)C1CC2(N=N1)C(=O)N1[C@@H](C(=O)OC(c3ccccc3)c3ccccc3)C(C)(C)S[C@@H]12` (some centres undefined), for which the IC50 was 0.012 µM in data set [3] and less than 10 µM in the data set with Plasmodium berghei.

As for `CC1(C)S[C@H]2N(C(=O)C23N=NC(C(=O)OC(c2ccccc2)c2ccccc2)=C3C(=O)OC(c2ccccc2)c2ccccc2)[C@H]1C(=O)OC(c1ccccc1)c1ccccc1` (some centres undefined), the CC50 in data set [1] was 33.5 µM. In data set [2], the inhibition at 10 µg/mL was 0%.

`COC(=O)C1=CCC(C(=O)c2ccccc2)C12C(=O)N1[C@@H](C(=O)OC(c3ccccc3)c3ccccc3)C(C)(C)S[C@@H]12` (some centres undefined): in data set [1], the CC50 was determined as 54.9 µM. For the same compound, the inhibition at 10 µg/mL in data set [2] was determined as 0%.

In the case of `CC(C)(C)OC(=O)C1=CCC2(C(=O)N3[C@@H](C(=O)OC(c4ccccc4)c4ccccc4)C(C)(C)S[C@@H]32)C1C(=O)c1ccccc1` (some centres undefined), the CC50 in data set [1] was determined as 44.4 µM. For the same compound, the inhibition at 10 µg/mL in data set [2] was found to be 0%.

`CC1(C)S[C@H]2N(C(=O)C23C=C(C(=O)OC(c2ccccc2)c2ccccc2)N=N3)[C@H]1C(=O)OC(c1ccccc1)c1ccccc1` (some centres undefined): the CC50 in data set [1] came to 54.4 µM. For the same compound, in data set [2], the inhibition at 10 µg/mL was 0%.

On to `CC1(C)S[C@H]2N(C(=O)C23CC=C(C(=O)OCc2ccccc2)C3C(=O)OCc2ccccc2)[C@H]1C(=O)OC(c1ccccc1)c1ccccc1` (some centres undefined), for which, in data set [1], the CC50 was found to be 43.2 µM. Also, the inhibition at 10 µg/mL in data set [2] is 0%.

As for `CC1(C)S[C@H]2N(C(=O)C23C=C(C(=O)Oc2ccc4ccccc4c2)N=N3)[C@H]1C(=O)O` (some centres undefined), in data set [1], the 50% cytotoxic concentration (CC50) was determined as 68.6 µM. Moreover, the inhibition at 10 µg/mL in data set [2] was determined as 0%.

Consider `COC(=O)[C@@H]1N2C(=O)C3(C(C(=O)OCc4ccccc4)=CCC3C(=O)c3ccccc3)[C@H]2SC1(C)C` (some centres undefined), for which, in data set [1], the CC50 was found to be 55.4 µM. For the same compound, the inhibition at 10 µg/mL in data set [2] was determined as 0%.

Turning to `CCOC(=O)C1=CCC2(C(=O)N3[C@@H](C(=O)OC(c4ccccc4)c4ccccc4)C(C)(C)S[C@@H]32)C1C(=O)c1ccccc1` (some centres undefined), the CC50 in data set [1] worked out at 59 µM. The inhibition at 10 µg/mL in data set [2] is 99%. For the same compound, the concentration for half-maximal inhibition (IC50) is 0.305 µM in data set [3], 1.92 µM with Plasmodium berghei and 0.844 µM with Plasmodium falciparum. For the same compound, in data set [3], it took 0.479 µM to reach the 90% level (IC90). In addition, the Activity result in the data set on Huh-7 is “Non-Toxic”.

For the compound `CC1(C)S[C@H]2N(C(=O)C23CC=C(C(=O)OCc2ccccc2)C3C(=O)c2ccccc2)[C@H]1C(=O)O` (some centres undefined), in data set [1], the CC50 turned out to be 60.3 µM. Further, the inhibition at 10 µg/mL in data set [2] came out at 0%.

In the case of `CC(=O)C1C(C(=O)OCc2ccccc2)=CCC12C(=O)N1[C@@H](C(=O)OC(c3ccccc3)c3ccccc3)C(C)(C)S[C@@H]12` (some centres undefined), the values for the IC50 (in data set [3]; in the data set on Plasmodium berghei; in data set [4]) were 0.65 µM, less than 5 µM and 0.51 µM, respectively.

Regarding `CC(C)(C)OC(=O)C1=CCC(C(=O)c2ccccc2)C12C(=O)N1[C@@H](C(=O)OC(c3ccccc3)c3ccccc3)C(C)(C)S[C@@H]12` (some centres undefined), the CC50 in data set [1] was found to be 43.2 µM. In addition, the inhibition at 10 µg/mL in data set [2] turned out to be 0%.

On to `CC1(C)S[C@H]2N(C(=O)C23C=C(C(=O)O)N=N3)[C@H]1C(=O)O` (some centres undefined), for which the CC50 in data set [1] came to 101 µM. Also, in data set [2], the inhibition at 10 µg/mL was determined as 0%.

`CC1(C)S[C@H]2N(C(=O)C23C[C@@H]2CN=N[C@]2(C(=O)OCc2ccccc2)C3C(=O)c2ccccc2)[C@H]1C(=O)OC(c1ccccc1)c1ccccc1` (some centres undefined): the CC50 in data set [1] was 41.8 µM. The inhibition at 10 µg/mL in data set [2] was found to be 0%.

With `CC1(C)S[C@H]2N(C(=O)C23C=C(C(=O)Oc2ccc4ccccc4c2)N=N3)[C@H]1C(=O)OC(c1ccccc1)c1ccccc1` (some centres undefined), the CC50 in data set [1] is 49.1 µM. Also, the inhibition at 10 µg/mL in data set [2] amounted to 0%.

Consider `CC(C)(C)OC(=O)C1=CC2(N=N1)C(=O)N1[C@@H](C(=O)OC(c3ccccc3)c3ccccc3)C(C)(C)S[C@@H]12` (some centres undefined), for which the CC50 in data set [1] stood at 55.1 µM. The inhibition at 10 µg/mL in data set [2] stood at 0%.

As for `COC(=O)C1=CC2(N=N1)C(=O)N1[C@@H](C(=O)NO)C(C)(C)S[C@@H]12` (some centres undefined), in data set [1], the CC50 was determined as 76.8 µM. In addition, the inhibition at 10 µg/mL in data set [2] was found to be 0%.

The CC50 is the concentration at which the toxic effect on the cells reaches its halfway point. A word on the inhibition: it is the change of the read-out against control, counted positive when it falls. Usually IC50 stands for the concentration that inhibits the measured activity by half. What is called IC90 is the concentration at which the effect reaches the 90% level. Read a low IC90 as an effect from little substance.
